The test system of one data set is HT-29. In words: Antiproliferative activity against human HT-29 cells assessed as cell growth inhibition at 25 uM incubated for 72 hrs by MTT assay relative to control. Format: functional. For orientation: Tetrazolium assays rely on reduction of a dye to a coloured formazan, in cell work by metabolically active cells.
Data set [1] in a line: Antiproliferative activity against human SJG2 cells assessed as cell growth inhibition at 25 uM incubated for 72 hrs by MTT assay relative to control. Conditions: SJ-G2. Format: functional.
For another data set, the system named is A2780. In words: Antiproliferative activity against human A2780 cells assessed as cell growth inhibition at 25 uM incubated for 72 hrs by MTT assay relative to control. It is filed as functional.
For a further data set, the system named is A-431. In words: Antiproliferative activity against human A-431 cells assessed as cell growth inhibition at 25 uM incubated for 72 hrs by MTT assay relative to control. It is filed as functional.
The subject of a further data set is DU-145. Kind of data set: Antiproliferative activity against human DU-145 cells assessed as cell growth inhibition at 25 uM incubated for 72 hrs by MTT assay relative to control. Format: functional.
In the next data set the test system is NCI-H460. In words: Antiproliferative activity against human NCI-H460 cells assessed as cell growth inhibition at 25 uM incubated for 72 hrs by MTT assay relative to control. It is filed as functional.
Another data set relates to MCF7. In words: Antiproliferative activity against human MCF7 cells assessed as cell growth inhibition at 25 uM incubated for 72 hrs by MTT assay relative to control. It is filed as functional.
The subject of another data set is BE(2)-C. Kind of data set: Antiproliferative activity against human BE2C cells assessed as cell growth inhibition at 25 uM incubated for 72 hrs by MTT assay relative to control. It is filed as functional.
Another data set has as its system MIA PaCa-2. In words: Antiproliferative activity against human MIA PaCa-2 cells assessed as cell growth inhibition at 25 uM incubated for 72 hrs by MTT assay relative to control. It is filed as functional.
Data set [2] in a line: Cytotoxicity against human MCF-10A cells assessed as cell growth inhibition at 25 uM incubated for 72 hrs by MTT assay relative to control. It is filed as toxicity, cell-based.
The next data set has as its system U-87 MG. In words: Antiproliferative activity against human U87 cells assessed as cell growth inhibition at 25 uM incubated for 72 hrs by MTT assay relative to control. Format: functional, U-87MG ATCC.

Inhibition data for 17 compounds are collected here from ChEMBL document CHEMBL5532698, “2,3-Dihydroquinazolin-4(1H)-ones and quinazolin-4(3H)-ones as broad-spectrum cytotoxic agents and their impact on tubulin polymerisation” (RSC Med Chem, 2024).

As usually defined, the inhibition is the percentage by which the read-out fell short of the control. In the case of `O=C1NC(c2cc(O)c(O)c(O)c2)Nc2ccccc21` (configuration not stated), the inhibition at 25 µM in the data set on HT-29 was 49%; in [1], 10%; in the data set with A2780 it was 36%; in the data set on A-431, 21%; in the data set with DU-145, 40%; in the data set with NCI-H460, 19%. Further, the inhibition at 25 µM turned out to be 56% in the data set with MCF7, 27% in the data set on BE(2)-C, 34% in the data set on MIA PaCa-2 and 29% with U-87 MG. The inhibition at 72 h, 25 µM in data set [2] was found to be 51%.

Take `O=C1NC(c2cccnc2)Nc2ccccc21` (configuration not stated): the inhibition at 25 µM (in the data set with HT-29; in data set [1]; in the data set on A2780; with A-431; in the data set with DU-145; in the data set with NCI-H460) was below 10% each time. The inhibition at 25 µM with MCF7 is 21%; with BE(2)-C, below 10%; with MIA PaCa-2 it was 11%; in the data set on U-87 MG, below 10%. In addition, the inhibition at 72 h, 25 µM in [2] is below 10%.

As for `CCCCC1NC(=O)c2ccccc2N1` (configuration not stated), the inhibition at 25 µM in the data set with HT-29 is 32%; in data set [1], below 10%; in the data set on A2780 it was 59%; with A-431, 30%; with DU-145, 25%; in the data set with NCI-H460, below 10%. For the same compound, the inhibition at 25 µM in the data set on MCF7 worked out at 25%; in the data set on BE(2)-C, 38%; in the data set with MIA PaCa-2 it was 16%; with U-87 MG, 9%. Further, the inhibition at 72 h, 25 µM in data set [2] came out at 13%.

As to `O=c1[nH]c(-c2ccccc2Br)nc2ccccc12`, the inhibition at 25 µM is 15% in the data set on HT-29; 11% in data set [1]; 13% in the data set on A2780; 12% in the data set with A-431; 25% in the data set on DU-145; 20% with NCI-H460. For the same compound, the inhibition at 25 µM in the data set on MCF7 amounted to 10%; in the data set with BE(2)-C, 23%; in the data set on MIA PaCa-2, 24%; in the data set with U-87 MG it was 14%. In addition, in [2], the inhibition at 72 h, 25 µM is 17%.

Regarding `Oc1nc(-c2ccncc2)nc2ccccc12`, the inhibition at 25 µM is 11% in the data set with HT-29; below 10% in data set [1]; below 10% with A2780; below 10% in the data set on A-431; below 10% in the data set with DU-145; 15% in the data set on NCI-H460. Further, the inhibition at 25 µM in the data set on MCF7 is below 10%; in the data set with BE(2)-C, below 10%; with MIA PaCa-2, 10%; in the data set with U-87 MG, below 10%. Also, in [2], the inhibition at 72 h, 25 µM is below 10%.

Turning to `N#Cc1cccc(C2NC(=O)c3ccccc3N2)c1` (configuration not stated), the inhibition at 25 µM came out at 31% with HT-29; 18% in [1]; 54% in the data set with A2780; 34% in the data set on A-431; 26% in the data set on DU-145; 17% in the data set on NCI-H460. The inhibition at 25 µM in the data set with MCF7 amounted to 60%; with BE(2)-C, 20%; in the data set on MIA PaCa-2, 14%; in the data set with U-87 MG, 19%. Moreover, in [2], the inhibition at 72 h, 25 µM stood at 12%.

In the case of `O=C1NC(c2ccccc2C(=O)O)Nc2ccccc21` (configuration not stated), the inhibition at 25 µM in the data set with HT-29 turned out to be 37%; in data set [1] it was 49%; in the data set on A2780, 48%; with A-431, 22%; in the data set with DU-145, 20%; with NCI-H460 it was 43%. The inhibition at 25 µM is 49% in the data set with MCF7, 19% in the data set on BE(2)-C, 20% in the data set with MIA PaCa-2 and below 10% with U-87 MG. For the same compound, the inhibition at 72 h, 25 µM in data set [2] was 20%.

Consider `O=C1NC(c2ccc(Br)o2)Nc2ccccc21` (configuration not stated), for which the inhibition at 25 µM in the data set with HT-29 is below 10%; in data set [1], 12%; in the data set with A2780, 37%; with A-431, below 10%; in the data set on DU-145, below 10%; with NCI-H460, below 10%. Besides, the inhibition at 25 µM with MCF7 is 13%; with BE(2)-C, 20%; in the data set on MIA PaCa-2, below 10%; in the data set on U-87 MG it was below 10%. Moreover, in data set [2], the inhibition at 72 h, 25 µM was below 10%.

As to `N#Cc1ccc(C2NC(=O)c3ccccc3N2)cc1` (configuration not stated), the inhibition at 25 µM in the data set on HT-29 is 16%; in [1] it was 14%; in the data set on A2780 it was 18%; in the data set with A-431, below 10%; in the data set on DU-145 it was 10%; in the data set on NCI-H460, 11%. Moreover, the inhibition at 25 µM is 40% in the data set with MCF7, below 10% with BE(2)-C, 11% in the data set with MIA PaCa-2 and below 10% in the data set with U-87 MG. Moreover, in data set [2], the inhibition at 72 h, 25 µM stood at 10%.

Take `O=C1NC(C2CCCC2)Nc2ccccc21` (configuration not stated): the inhibition at 25 µM was 22% in the data set on HT-29; below 10% in data set [1]; 39% with A2780; 15% in the data set on A-431; 22% in the data set on DU-145; below 10% in the data set with NCI-H460. Besides, the inhibition at 25 µM in the data set on MCF7 was 35%; in the data set with BE(2)-C, 20%; in the data set with MIA PaCa-2 it was 19%; in the data set with U-87 MG, 11%. Besides, the inhibition at 72 h, 25 µM in data set [2] is 12%.

Consider `O=C1NC(c2ccccc2[N+](=O)[O-])Nc2ccccc21` (configuration not stated), for which the inhibition at 25 µM is 28% in the data set on HT-29; 33% in data set [1]; 33% in the data set on A2780; 36% with A-431; 27% with DU-145; 35% in the data set on NCI-H460. The inhibition at 25 µM in the data set with MCF7 was 16%; with BE(2)-C, below 10%; in the data set on MIA PaCa-2, 21%; in the data set with U-87 MG, 16%. Besides, the inhibition at 72 h, 25 µM in data set [2] was determined as 16%.

`O=C(O)c1ccc(C2NC(=O)c3ccccc3N2)cc1` (configuration not stated): the inhibition at 25 µM in the data set with HT-29 was 18%; in [1], 10%; in the data set on A2780, below 10%; with A-431 it was below 10%; with DU-145, 36%; in the data set on NCI-H460 it was below 10%. Besides, the inhibition at 25 µM was found to be 41% in the data set with MCF7, 12% in the data set with BE(2)-C, 14% in the data set with MIA PaCa-2 and 13% in the data set on U-87 MG. The inhibition at 72 h, 25 µM in [2] was found to be 8%.

`O=C1NC(c2c[nH]c3ccccc23)Nc2ccccc21` (configuration not stated): the inhibition at 25 µM is at least 84% in the data set with HT-29; above 100% in data set [1]; 94% in the data set on A2780; at least 79% with A-431; at least 77% with DU-145; 87% in the data set with NCI-H460. Moreover, the inhibition at 25 µM in the data set with MCF7 amounted to 78%; in the data set with BE(2)-C, 89%; with MIA PaCa-2, 79%; in the data set with U-87 MG it was 70%. The inhibition at 72 h, 25 µM in [2] amounted to 90%.

In the case of `CCCC/C=C/c1nc2ccccc2c(=O)[nH]1`, the inhibition at 25 µM in the data set with HT-29 is below 10%; in data set [1], 16%; with A2780 it was 43%; with A-431 it was 22%; in the data set with DU-145 it was 26%; in the data set on NCI-H460 it was 33%. The inhibition at 25 µM was 16% with MCF7, below 10% in the data set with BE(2)-C, 18% in the data set on MIA PaCa-2 and 25% with U-87 MG. Also, in data set [2], the inhibition at 72 h, 25 µM came out at 11%.

As to `O=C1NC(c2ccc3nsnc3c2)Nc2ccccc21` (configuration not stated), the inhibition at 25 µM in the data set on HT-29 is 35%; in data set [1], 29%; with A2780 it was 60%; in the data set with A-431, 25%; in the data set with DU-145 it was 22%; in the data set with NCI-H460, 21%. In addition, the inhibition at 25 µM with MCF7 is 49%; in the data set on BE(2)-C it was 64%; in the data set with MIA PaCa-2, 22%; with U-87 MG it was below 10%. The inhibition at 72 h, 25 µM in data set [2] amounted to 41%.

As for `COc1cc2c(c(OC)c1OC)-c1ccc(OC)c(=O)cc1[C@@H](NC(C)=O)CC2` [COLCHICINE], the inhibition at 25 µM with HT-29 came to 50%; in data set [1], 47%; in the data set on A2780, 62%; in the data set with A-431, 11%; in the data set with DU-145, 34%; with NCI-H460, 35%. Moreover, the inhibition at 25 µM in the data set with MCF7 amounted to 85%; in the data set on BE(2)-C, 61%; with MIA PaCa-2 it was 89%; in the data set on U-87 MG, 21%. Besides, the inhibition at 72 h, 25 µM in [2] stood at 57%.

On to `O=C(O)c1cccc(C2NC(=O)c3ccccc3N2)c1` (configuration not stated), for which the inhibition at 25 µM in the data set on HT-29 was 24%; in [1], 12%; in the data set with A2780, 10%; in the data set on A-431, below 10%; with DU-145, 31%; in the data set on NCI-H460 it was 12%. The inhibition at 25 µM amounted to 43% in the data set with MCF7, 12% with BE(2)-C, 13% with MIA PaCa-2 and 10% with U-87 MG. Besides, the inhibition at 72 h, 25 µM in [2] was determined as 22%.
